One may read the IC50 as the concentration needed to halve the response being measured. Low readings indicate higher potency, high ones lower potency.

The values that follow come from patent US20260176267A1, “PREPARATION OF IMIDAZOPYRIDINE AND IMIDAZOPYRIDAZINE DERIVATIVES AS NOVEL DIACYLGLYCERIDE O-ACYLTRANSFERASE 2 INHIBITORS” (Merck Sharp & Dohme LLC, priority 2022, published 2026).

This test concerns the target T1, human DGAT2 (hDGAT2) (Homo sapiens, UniProt Q96PD7).
T1 construct: made in house; host or cells: Sf-9 insect cells (baculovirus), membrane fraction
T1 sequence (Q96PD7 1-388): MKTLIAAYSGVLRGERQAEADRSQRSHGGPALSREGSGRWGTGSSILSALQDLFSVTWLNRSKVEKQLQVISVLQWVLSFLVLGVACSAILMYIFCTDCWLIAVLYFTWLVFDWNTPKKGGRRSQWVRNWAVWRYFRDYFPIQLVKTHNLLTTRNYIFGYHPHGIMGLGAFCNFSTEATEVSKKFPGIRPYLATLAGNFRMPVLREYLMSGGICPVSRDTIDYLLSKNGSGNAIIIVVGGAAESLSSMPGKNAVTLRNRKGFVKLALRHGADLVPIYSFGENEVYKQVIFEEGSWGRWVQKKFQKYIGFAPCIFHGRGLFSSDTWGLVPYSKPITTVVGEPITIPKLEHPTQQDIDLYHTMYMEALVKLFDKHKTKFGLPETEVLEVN
Description: DGAT2 Enzymatic Activity Assay. In kind it is biochemical. The settings on record: membrane prep of Sf-9 cells expressing hDGAT2; 13C18-triolein product by LC/MS/MS; 25 μM diolein, 5 μM 13C oleoyl-CoA, rt. As for the experimental part: Sf-9 insect cells were maintained in Grace's insect cell culture medium with 10% heated-inactivated fetal bovine serum, 1% Pluronic F-68 and 0.14 μg/ml Kanamycine sulfate at 27° C. in a shaker incubator. After infection with untagged baculovirus expressing human DGAT2 (hDGAT2) at multiplicity of infection (MOI) 3 for 48 hours, cells were harvested. Cell pellets were suspended in buffer containing 10 mM Tris-HCl pH 7.5, 1 mM EDTA, 250 mM sucrose and Complete Protease Inhibitor Cocktail (Sigma Aldrich), and sonicated on ice. Cell debris were removed by centrifugation at 2000×g for 15 minutes. Membrane fractions were isolated by ultracentrifugation (100,000×g), resuspended in the same buffer, and frozen (−80° C.) for later use. The protein concentration was determined with the Pierce™ BCA Protein Assay Kit (Thermo Fisher Scientific).
LC/MS/MS analyses were performed using Thermal Fisher's LX4-TSQ Vantage system. This system consists of an Agilent binary high-performance liquid chromatography (HPLC) pump and a TSQ Vantage triple quadrupole MS/MS instrument. For each sample, 2 μL samples from the top organic layer of in-plate liquid-liquid extraction were injected onto a Thermo Betabasic C4 column (2.1 mm×20 mm, 5 μm particle size). The samples were then eluted using the following conditions; mobile phase: Isopropanol:acetonitrile/10 mM ammonium formate=50/35/15 (v/v/v), flow rate: 0.8 mL/min, temperature: 25° C. Data was acquired in positive mode using a heated electrospray ionization (HESI) interface. The operational parameters for the TSQ Vantage MS/MS instrument were a spray voltage of 3000 V, capillary temperature of 280° C., vaporizer temperature 400° C., sheath gas 45 arbitrary unit. Aux gas 10 arbitrary units. […] The peak area was integrated by Xcalibur Quan software. The ratio between the ^13C18 triolein generated in the reaction and spiked in internal standard ^13C21-triolein was used to generate percentage inhibition and IC50 values. Compound percentage inhibition was calculated by the following formula: Inhibition %=1−[(compound response−low control)/(high control−low control)]×100%.
DGAT2 activity was determined by measuring the amount of enzymatic product ^13C18-triolein (^13C-1,2,3-Tri(cis-9-octadecenoyl)glycerol) using the membrane prep mentioned above. The assay was carried out in ABgene 384-well assay plates in a final volume of 25 μL at rt.

As to `Cc1cc2nc(C(=O)NC3(C)CCS(=O)(=O)CC3)cn2cc1Oc1ncc(Cl)cc1OCC(F)(F)F` [Example 30, 6-[[5-chloro-3-(2,2,2-trifluoroethoxy)-2-pyridyl]oxy]-7-methyl-N-(4-methyl-1,1-dioxo-thian-4-yl)imidazo[1,2-a]pyridine-2-carboxamide], the IC50 is 6.2 nM.
In the case of `Cc1c(Oc2ncc(Cl)cc2OCC(C)(F)F)ccc2nc(C(=O)NC3(C)CCS(=O)(=O)CC3)cn12` [Example 31, 6-[[5-chloro-3-(2,2-difluoropropoxy)-2-pyridyl]oxy]-5-methyl-N-(4-methyl-1,1-dioxo-thian-4-yl)imidazo[1,2-a]pyridine-2-carboxamide] it was 9.1 nM.
In the case of `CC1(NC(=O)c2cn3cc(Oc4ncc(F)cc4OCC(F)(F)F)ccc3n2)CS(=O)(=O)C1` [Example 32, 6-[[5-fluoro-3-(2,2,2-trifluoroethoxy)-2-pyridyl]oxy]-N-(3-methyl-1,1-dioxo-thietan-3-yl)imidazo[1,2-a]pyridine-2-carboxamide] it was 31 nM; in that of `Cc1c(Oc2ncc(F)cc2OCC2(F)CC2)ccc2nc(C(=O)NC3(C)CCS(=O)(=O)CC3)cn12` [Example 33, 6-[[5-fluoro-3-[(1-fluorocyclopropyl)methoxy]-2-pyridyl]oxy]-5-methyl-N-(4-methyl-1,1-dioxo-thian-4-yl)imidazo[1,2-a]pyridine-2-carboxamide], 5.3 nM.
In the case of `Cc1c(Oc2ncc(F)cc2OCC(F)(F)F)ccc2nc(C(=O)NC3(C)CCS(=O)(=O)CC3)cn12` [Example 34, 6-[[5-fluoro-3-(2,2,2-trifluoroethoxy)-2-pyridyl]oxy]-5-methyl-N-(4-methyl-1,1-dioxo-thian-4-yl)imidazo[1,2-a]pyridine-2-carboxamide] it was 2.8 nM; in that of `CCOc1cccnc1Oc1ccc2nc(C(=O)N[C@@]3(C)CCS(=O)(=O)C3)cn2c1` [Example 35, 6-[(3-ethoxy-2-pyridyl)oxy]-N-[(3S)-3-methyl-1,1-dioxo-thiolan-3-yl]imidazo[1,2-a]pyridine-2-carboxamide], 52 nM.
`Cc1c(Oc2ncccc2OCC(F)(F)F)ccc2nc(C(=O)NC3(C)CCS(=O)(=O)CC3)cn12` [Example 36, 5-methyl-N-(4-methyl-1,1-dioxo-thian-4-yl)-6-[[3-(2,2,2-trifluoroethoxy)-2-pyridyl]oxy]imidazo[1,2-a]pyridine-2-carboxamide] returned an IC50 of 30 nM.
The figure for `CCOc1cccnc1Oc1ccc2nc(C(=O)N[C@@H]3CCCC[C@@H]3O)cn2c1` [Example 37] is 124 nM; for `CCOc1cccnc1Oc1ccc2nc(C(=O)NC3CC(C)(C)OC(C)(C)C3)cn2c1` [Example 38, 6-[(3-ethoxy-2-pyridyl)oxy]-N-(2,2,6,6-tetramethyltetrahydropyran-4-yl)imidazo[1,2-a]pyridine-2-carboxamide] it is 56 nM.
In the case of `CC1(NC(=O)c2cn3c(F)c(Oc4ncccc4OCC(F)(F)F)ccc3n2)CCS(=O)(=O)CC1` [Example 39, 5-fluoro-N-(4-methyl-1,1-dioxo-thian-4-yl)-6-[[3-(2,2,2-trifluoroethoxy)-2-pyridyl]oxy]imidazo[1,2-a]pyridine-2-carboxamide] it was 74 nM.
The figure for `Cc1cc2nc(C(=O)NC3(C)CCS(=O)(=O)CC3)cn2c(C)c1Oc1ncc(F)cc1OCC(C)(F)F` [Example 40, 6-[[3-(2,2-difluoropropoxy)-5-fluoro-2-pyridyl]oxy]-5,7-dimethyl-N-(4-methyl-1,1-dioxo-thian-4-yl)imidazo[1,2-a]pyridine-2-carboxamide] is 52 nM; for `Cc1cc2nc(C(=O)NC3(C)CCS(=O)(=O)CC3)cn2cc1Oc1ncc(Cl)cc1OCC1(F)COC1` [Example 41, 6-[[5-chloro-3-[(3-fluorooxetan-3-yl)methoxy]-2-pyridyl]oxy]-7-methyl-N-(4-methyl-1,1-dioxo-thian-4-yl)imidazo[1,2-a]pyridine-2-carboxamide] it is 74 nM.
